In patent EP4755396A1, “TREATMENT OF P53 GENE MUTATION OR DEFECT NEGATIVE CANCER AND TUMOR PATIENTS” (Ascentawits Pharmaceuticals, Ltd., priority 2023, dated 2025):
Read-outs that look alike come from different tables or passages of the source.

What was measured:
H460 cells [1] = assay: Cell cycle G2/M arrest, PI staining flow cytometry; format: cell-based; conditions: first experiment, 0.1 nM AST-3424, 5 µM Nutlin-3, 24 hours, combination: AST-3424 first (Figure 5)
Description: Overview of the experimental process: • 1) H460/HPAF-II cell suspensions were added to a 24-well plate, with a cell density of 100000 /well and 995 µL of medium per well. • 2) The cells were cultured overnight in an incubator at 37°C, 5% CO2. • 3) Compound Treatment
4) The cells were digested, centrifuged at 1000 g at 4°C, washed once with pre-cooled PBS, centrifuged at 1000 g at 4°C, and fixed with 1 mL of pre-cooled 70% ethanol at -20°C overnight.
5) The cells were centrifuged at 3000g at 4°C, washed once with pre-cooled PBS (phosphate buffer), centrifuged at 3000g at 4°C. Prepare PI staining solution. The cells were stained at 37°C away from light for 30 minutes, and stored in an ice bath away from light. Flow cytometric detection was performed on the same day, and the proportion of cells in different cell cycle phases was analyzed using FlowJo.

H460 cells [2] = assay: In vitro cell proliferation inhibition under normoxia (96-well, CTG, 72 hours); format: cell-based, human; conditions: Homo sapiens, NCI-H460, H460 cells, 72 hours; for inhibition at 0.25 µM: Nutlin-3 0.25 µM; for inhibition at 0.5 µM: Nutlin-3 0.5 µM; for inhibition at 1 µM: Nutlin-3 1 µM
Description: Overview of the experimental process • 1) H460 cell suspension was added to a 96-well plate at 100 µL per well, with a cell density of 2000 /well. • 2) The cells were cultured overnight in an incubator at 37°C, 5% CO2. • 3) Compound Treatment
Monotherapy: After 24 hours of cell plating, each well was supplied with 99.5 µL of growth medium then added with 0.5µL of test compounds at different concentrations, shaken gently to ensure even mixing, and then placed at 37°C, 5% CO2 in an incubator.
(§1) Combination therapy: After 24 hours of cell plating, each well was supplied with 99 µL of growth medium then added with 0.5µL of the combined action compound Nutlin-3, shaken gently to ensure even mixing, and then placed in an incubator for 2 hours. Then each well was added with 0.5µL of test compounds at different concentrations, shaken gently to ensure even mixing, and then placed at 37°C, 5% CO2 in an incubator.
(§2) 4) The cell plate was placed in the incubator for 72 hours.
(§3) 5) The cell plate to be tested was placed at room temperature to equilibrium for 30 minutes, and 100µL of medium was discarded per well.
(§4) 6) 25µL of CTG reagent was added to each well, placed at a fast shaker to shake for 2 minutes, and placed at room temperature away from light for 30 minutes.
7) The chemiluminescence signal value was read using a multifunctional microplate reader with a reading time of 1000 ms.
8) IC50 was calculated with Graph Pad Prism 5 software.
(§5) • 1) H460 and HPAF-II cell suspensions were added to a 96-well plate at 100 µL per well, with a cell density of 2000 /well and 20000/well, respectively. • 2) The cells were cultured overnight in an incubator at 37°C, 5% CO2. • 3) Compound Treatment
(§6) Combination therapy: After 24 hours of cell plating, 99 µL of growth medium was supplied to each well. Each well was added with 0.5 µL of Nutlin-3 or RITA, shaken gently to ensure even mixing, and then placed in an incubator for 2 hours. Then each well was added with 0.5µL of test compounds at different concentrations, shaken gently to ensure even mixing, and then placed at 37°C, 5% CO2 in an incubator.
(§7) Monotherapy: After 24 hours of cell plating, 99.5 µL of growth medium was supplied to each well. Then each well was added with 0.5µL of test compounds at different concentrations, shaken gently to ensure even mixing, and then placed at 37°C, 5% CO2 in an incubator.
(§8) 7) The chemiluminescence signal value was read using a multifunctional microplate reader with a reading time of 1000 ms. The corresponding inhibition rate data were calculated.
• 1) NCI-H460, NCI-H460 P53KO # 1 cell suspensions were added to a 96-well plate at 100 µL per well, with a cell density of 2000 /well. • 2) The cells were cultured overnight in an incubator at 37°C, 5% CO2. • 3) Compound Treatment
as §1, with “plating,” for “plating, each well was supplied with”, “of” for “of growth”, “medium was supplied to each well. Each well was” for “medium then”, “of” for “of the”, “action compound,” for “action compound Nutlin-3,”
8) The ICso (half maximal inhibitory concentration) values were calculated using GraphPad Prism 5 software.

HPAF-II cells = assay: In vitro cell proliferation inhibition (96-well, CTG, 72 hours); format: cell-based; conditions: Homo sapiens, HPAF-II cells, 72 hours; for inhibition at 7.5 µM: Nutlin-3 7.5 µM; for inhibition at 10 µM: Nutlin-3 10 µM; for inhibition at 15 µM: Nutlin-3 15 µM
Description: as §5, §6, §7, §2, §3, §4, §8

COc1ccc(C2=NC(c3ccc(Cl)cc3)C(c3ccc(Cl)cc3)N2C(=O)N2CCNC(=O)C2)c(OC(C)C)c1 (racemic) [Nutlin-3]
cell cycle (G0/G1, S, G2/M phases) (H460 cells [1]): did not significantly alter the cell cycle
inhibition at 0.25 µM (H460 cells [2]; AST 0.5 nM, AST+Nutlin-3 0.5+0.25, read-out: Inhibition rate result, experimental group 1): 11.8%
inhibition at 0.5 µM (H460 cells [2]; AST 0.5 nM, AST+Nutlin-3 0.5+0.5, read-out: Inhibition rate result, experimental group 2): 17.3%
inhibition at 1 µM (H460 cells [2]; AST 0.5 nM, AST+Nutlin-3 0.5+1, read-out: Inhibition rate result, experimental group 3): 18.3%
inhibition at 0.25 µM (H460 cells [2]; AST 1.5 nM, AST+Nutlin-3 1.5+0.25, read-out: Inhibition rate result, experimental group 4): 11.8%
inhibition at 0.5 µM (H460 cells [2]; AST 1.5 nM, AST+Nutlin-3 1.5+0.5, read-out: Inhibition rate result, experimental group 5): 17.3%
inhibition at 1 µM (H460 cells [2]; AST 1.5 nM, AST+Nutlin-3 1.5+1, read-out: Inhibition rate result, experimental group 6): 18.3%
inhibition at 7.5 µM (HPAF-II cells; AST 20 nM, AST+Nutlin-3 20+7.5, read-out: Inhibition rate result, experimental group 1): 8.54%
inhibition at 10 µM (HPAF-II cells; AST 20 nM, AST+Nutlin-3 20+10, read-out: Inhibition rate result, experimental group 2): 52.5%
inhibition at 15 µM (HPAF-II cells; AST 20 nM, AST+Nutlin-3 20+15, read-out: Inhibition rate result, experimental group 3): 73.9%
inhibition at 7.5 µM (HPAF-II cells; AST 60 nM, AST+Nutlin-3 60+7.5, read-out: Inhibition rate result, experimental group 4): 8.54%
inhibition at 10 µM (HPAF-II cells; AST 60 nM, AST+Nutlin-3 60+10, read-out: Inhibition rate result, experimental group 5): 52.5%
inhibition at 15 µM (HPAF-II cells; AST 60 nM, AST+Nutlin-3 60+15, read-out: Inhibition rate result, experimental group 6): 73.9%
